Results as given in ChEMBL document CHEMBL4507304, “Data for DCP probe TP-021” (2021).

Columns and labels:
[1] = target: Activin receptor type-1 (Homo sapiens) (UniProt Q04771); details: Compound concentration 1000.0 nM
[2] = target: ALK tyrosine kinase receptor (Homo sapiens) (UniProt Q9UM73); details: Compound concentration 1000.0 nM
[3] = target: Tyrosine-protein kinase receptor UFO (Homo sapiens) (UniProt P30530); details: Compound concentration 1000.0 nM
[4] = target: Tyrosine-protein kinase Blk (Homo sapiens) (UniProt P51451); details: Compound concentration 1000.0 nM
[5] = target: Cyclin-dependent kinase 2 (Homo sapiens) (UniProt P24941); details: Compound concentration 1000.0 nM
[6] = target: Cyclin-dependent kinase-like 2 (Homo sapiens) (UniProt Q92772); details: Compound concentration 1000.0 nM
[7] = target: Dual specificity protein kinase CLK2 (Homo sapiens) (UniProt P49760); details: Compound concentration 1000.0 nM
[8] = target: Dual specificity protein kinase CLK4 (Homo sapiens) (UniProt Q9HAZ1); details: Compound concentration 1000.0 nM
[9] = target: Casein kinase I isoform gamma-3 (Homo sapiens) (UniProt Q9Y6M4); details: Compound concentration 1000.0 nM
[10] = target: Casein kinase II subunit alpha' (Homo sapiens) (UniProt P19784); details: Compound concentration 1000.0 nM
[11] = target: Death-associated protein kinase 1 (Homo sapiens) (UniProt P53355); details: Compound concentration 1000.0 nM
[12] = target: Serine/threonine-protein kinase DCLK1 (Homo sapiens) (UniProt O15075); details: Compound concentration 1000.0 nM
[13] = target: Dual specificity tyrosine-phosphorylation-regulated kinase 1B (Homo sapiens) (UniProt Q9Y463); details: Compound concentration 1000.0 nM
[14] = target: Ephrin type-A receptor 5 (Homo sapiens) (UniProt P54756); details: Compound concentration 1000.0 nM
[15] = target: Ephrin type-B receptor 1 (Homo sapiens) (UniProt P54762); details: Compound concentration 1000.0 nM
[16] = system: Receptor-type tyrosine-protein kinase FLT3 (Homo sapiens), P36888 [D835V]; details: Compound concentration 1000.0 nM
[17] = target: Tyrosine-protein kinase Fyn (Homo sapiens) (UniProt P06241); details: Compound concentration 1000.0 nM
[18] = target: Rhodopsin kinase GRK1 (Homo sapiens) (UniProt Q15835); details: Compound concentration 1000.0 nM
[19] = target: Beta-adrenergic receptor kinase 1 (Homo sapiens) (UniProt P25098); details: Compound concentration 1000.0 nM
[20] = target: Serine/threonine-protein kinase haspin (Homo sapiens) (UniProt Q8TF76); details: Compound concentration 1000.0 nM
[21] = target: Inhibitor of nuclear factor kappa-B kinase subunit alpha (Homo sapiens) (UniProt O15111); details: Compound concentration 1000.0 nM
[22] = target: Tyrosine-protein kinase ITK/TSK (Homo sapiens) (UniProt Q08881); details: Compound concentration 1000.0 nM
[23] = target: Tyrosine-protein kinase JAK1 (Homo sapiens) (UniProt P23458); details: Compound concentration 1000.0 nM
[24] = target: Tyrosine-protein kinase JAK2 (Homo sapiens) (UniProt O60674); details: Compound concentration 1000.0 nM
[25] = system: Mast/stem cell growth factor receptor Kit (Homo sapiens), P10721 [V559D,T670I]; details: Compound concentration 1000.0 nM
[26] = target: Tyrosine-protein kinase Lck (Homo sapiens) (UniProt P06239); details: Compound concentration 1000.0 nM
[27] = target: Serine/threonine-protein kinase MARK1 (Homo sapiens) (UniProt Q9P0L2); details: Compound concentration 1000.0 nM
[28] = target: Serine/threonine-protein kinase Nek6 (Homo sapiens) (UniProt Q9HC98); details: Compound concentration 1000.0 nM
[29] = target: Serine/threonine-protein kinase Nek7 (Homo sapiens) (UniProt Q8TDX7); details: Compound concentration 1000.0 nM
[30] = target: Cyclin-dependent kinase 14 (Homo sapiens) (UniProt O94921); details: Compound concentration 1000.0 nM
[31] = target: Phosphorylase b kinase gamma catalytic chain, skeletal muscle/heart isoform (Homo sapiens) (UniProt Q16816); details: Compound concentration 1000.0 nM
[32] = target: Phosphatidylinositol 4,5-bisphosphate 3-kinase catalytic subunit gamma isoform (Homo sapiens) (UniProt P48736); details: Compound concentration 1000.0 nM
[33] = target: cGMP-dependent protein kinase 2 (Homo sapiens) (UniProt Q13237); details: Compound concentration 1000.0 nM
[34] = target: RAF proto-oncogene serine/threonine-protein kinase (Homo sapiens) (UniProt P04049); details: Compound concentration 1000.0 nM
[35] = target: Receptor-interacting serine/threonine-protein kinase 2 (Homo sapiens) (UniProt O43353); details: Compound concentration 1000.0 nM
[36] = target: Serine/threonine-protein kinase TAO1 (Homo sapiens) (UniProt Q7L7X3); details: Compound concentration 1000.0 nM
[37] = target: Serine/threonine-protein kinase tousled-like 1 (Homo sapiens) (UniProt Q9UKI8); details: Compound concentration 1000.0 nM
[38] = target: Tyrosine-protein kinase receptor TYRO3 (Homo sapiens) (UniProt Q06418); details: Compound concentration 1000.0 nM
[39] = target: Vascular endothelial growth factor receptor 2 (Homo sapiens) (UniProt P35968); details: Compound concentration 1000.0 nM
[40] = target: Serine/threonine-protein kinase VRK2 (Homo sapiens) (UniProt Q86Y07); details: Compound concentration 1000.0 nM
[41] = target: Wee1-like protein kinase 2 (Homo sapiens) (UniProt P0C1S8); details: Compound concentration 1000.0 nM
[42] = target: 5-hydroxytryptamine receptor 7 (Homo sapiens) (UniProt P34969); details: Compound concentration 10.0 uM
[43] = target: Sodium-dependent dopamine transporter (Homo sapiens) (UniProt Q01959); details: Compound concentration 10.0 uM
[44] = target: Muscarinic acetylcholine receptor M4 (Homo sapiens) (UniProt P08173); details: Compound concentration 10.0 uM
[45] = target: Muscarinic acetylcholine receptor M5 (Homo sapiens) (UniProt P08912); details: Compound concentration 10.0 uM

Chain of Serine/threonine-protein kinase haspin (Homo sapiens) (Q8TF76 whole entry): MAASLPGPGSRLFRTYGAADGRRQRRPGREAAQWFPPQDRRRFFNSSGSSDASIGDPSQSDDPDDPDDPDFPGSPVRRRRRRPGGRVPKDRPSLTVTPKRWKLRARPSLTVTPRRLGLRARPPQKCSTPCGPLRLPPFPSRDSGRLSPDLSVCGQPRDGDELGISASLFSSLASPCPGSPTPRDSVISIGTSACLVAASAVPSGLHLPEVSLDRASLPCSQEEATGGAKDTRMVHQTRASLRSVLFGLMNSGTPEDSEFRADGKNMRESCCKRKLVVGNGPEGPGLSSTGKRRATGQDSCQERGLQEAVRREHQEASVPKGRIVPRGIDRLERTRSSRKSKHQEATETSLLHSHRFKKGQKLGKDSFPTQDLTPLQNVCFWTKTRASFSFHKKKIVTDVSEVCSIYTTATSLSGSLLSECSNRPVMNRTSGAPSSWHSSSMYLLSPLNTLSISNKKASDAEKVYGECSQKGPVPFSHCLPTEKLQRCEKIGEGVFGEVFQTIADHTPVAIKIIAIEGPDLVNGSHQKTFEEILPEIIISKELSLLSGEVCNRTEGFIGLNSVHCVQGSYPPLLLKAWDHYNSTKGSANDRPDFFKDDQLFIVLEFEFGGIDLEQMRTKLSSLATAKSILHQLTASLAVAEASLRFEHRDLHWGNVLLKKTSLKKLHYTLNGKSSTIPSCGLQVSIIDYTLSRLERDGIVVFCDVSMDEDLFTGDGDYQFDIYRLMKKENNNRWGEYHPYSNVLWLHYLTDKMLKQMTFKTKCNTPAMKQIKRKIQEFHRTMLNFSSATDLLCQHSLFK
Chain of Phosphatidylinositol 4,5-bisphosphate 3-kinase catalytic subunit gamma isoform (Homo sapiens) (P48736 whole entry, looked up, canonical isoform): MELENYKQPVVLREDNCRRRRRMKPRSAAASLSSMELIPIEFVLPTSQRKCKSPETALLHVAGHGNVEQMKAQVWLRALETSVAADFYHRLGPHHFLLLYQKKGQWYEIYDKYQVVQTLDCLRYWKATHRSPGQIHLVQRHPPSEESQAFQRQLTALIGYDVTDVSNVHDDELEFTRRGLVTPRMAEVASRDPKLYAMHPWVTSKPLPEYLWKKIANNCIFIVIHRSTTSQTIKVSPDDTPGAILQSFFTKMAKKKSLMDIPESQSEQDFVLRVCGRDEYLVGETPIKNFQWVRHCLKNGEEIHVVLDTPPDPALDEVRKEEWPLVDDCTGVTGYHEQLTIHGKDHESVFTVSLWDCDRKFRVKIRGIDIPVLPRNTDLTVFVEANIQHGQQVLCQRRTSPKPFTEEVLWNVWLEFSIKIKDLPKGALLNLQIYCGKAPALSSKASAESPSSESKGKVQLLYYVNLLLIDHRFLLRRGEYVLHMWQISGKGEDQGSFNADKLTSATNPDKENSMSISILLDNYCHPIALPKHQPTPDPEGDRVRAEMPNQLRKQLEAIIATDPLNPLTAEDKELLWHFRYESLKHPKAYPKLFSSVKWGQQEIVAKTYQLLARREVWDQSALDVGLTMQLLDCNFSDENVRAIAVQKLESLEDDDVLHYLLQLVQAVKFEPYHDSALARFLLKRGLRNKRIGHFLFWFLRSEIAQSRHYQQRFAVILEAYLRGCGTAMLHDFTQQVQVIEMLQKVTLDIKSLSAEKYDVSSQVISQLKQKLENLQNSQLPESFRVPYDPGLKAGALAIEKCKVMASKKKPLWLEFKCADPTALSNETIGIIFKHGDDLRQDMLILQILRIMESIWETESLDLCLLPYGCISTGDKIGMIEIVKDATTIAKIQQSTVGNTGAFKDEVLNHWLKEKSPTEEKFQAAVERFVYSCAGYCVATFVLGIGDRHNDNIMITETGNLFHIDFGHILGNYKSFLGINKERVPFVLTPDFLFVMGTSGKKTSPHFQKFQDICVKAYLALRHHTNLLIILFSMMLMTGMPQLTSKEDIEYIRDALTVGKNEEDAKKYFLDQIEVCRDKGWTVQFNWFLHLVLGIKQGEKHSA
Chain of Tyrosine-protein kinase JAK2 (Homo sapiens) (O60674 whole entry): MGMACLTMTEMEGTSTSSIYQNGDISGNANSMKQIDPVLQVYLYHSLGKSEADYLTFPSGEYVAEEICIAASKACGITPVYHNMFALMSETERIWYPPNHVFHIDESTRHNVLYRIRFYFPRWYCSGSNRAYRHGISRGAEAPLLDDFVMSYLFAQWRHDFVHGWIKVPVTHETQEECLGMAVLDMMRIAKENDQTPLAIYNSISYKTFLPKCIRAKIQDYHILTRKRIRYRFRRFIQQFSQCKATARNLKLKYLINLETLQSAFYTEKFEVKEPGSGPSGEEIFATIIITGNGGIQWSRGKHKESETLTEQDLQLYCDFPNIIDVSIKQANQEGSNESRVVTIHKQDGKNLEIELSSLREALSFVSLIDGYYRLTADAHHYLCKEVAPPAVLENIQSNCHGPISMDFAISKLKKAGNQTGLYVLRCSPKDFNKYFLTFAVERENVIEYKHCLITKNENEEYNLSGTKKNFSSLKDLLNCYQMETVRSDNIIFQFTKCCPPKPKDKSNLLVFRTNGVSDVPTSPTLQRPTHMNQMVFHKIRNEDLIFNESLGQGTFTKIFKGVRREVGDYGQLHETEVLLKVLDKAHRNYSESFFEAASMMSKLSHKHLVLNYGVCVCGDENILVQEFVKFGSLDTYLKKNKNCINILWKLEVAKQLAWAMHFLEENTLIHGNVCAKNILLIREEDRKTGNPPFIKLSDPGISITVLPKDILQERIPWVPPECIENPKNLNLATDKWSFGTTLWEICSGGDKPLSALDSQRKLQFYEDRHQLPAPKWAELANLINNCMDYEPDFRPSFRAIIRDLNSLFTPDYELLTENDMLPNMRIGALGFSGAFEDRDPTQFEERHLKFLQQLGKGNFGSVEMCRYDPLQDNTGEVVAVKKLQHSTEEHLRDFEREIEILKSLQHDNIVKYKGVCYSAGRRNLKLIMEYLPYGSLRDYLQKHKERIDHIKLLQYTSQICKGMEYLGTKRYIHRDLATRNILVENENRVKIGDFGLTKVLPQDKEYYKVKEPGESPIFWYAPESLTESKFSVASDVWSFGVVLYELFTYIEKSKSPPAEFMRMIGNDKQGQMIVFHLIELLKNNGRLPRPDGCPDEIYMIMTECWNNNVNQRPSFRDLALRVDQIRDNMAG
Chain of ALK tyrosine kinase receptor (Homo sapiens) (Q9UM73 19-1620 limits assumed): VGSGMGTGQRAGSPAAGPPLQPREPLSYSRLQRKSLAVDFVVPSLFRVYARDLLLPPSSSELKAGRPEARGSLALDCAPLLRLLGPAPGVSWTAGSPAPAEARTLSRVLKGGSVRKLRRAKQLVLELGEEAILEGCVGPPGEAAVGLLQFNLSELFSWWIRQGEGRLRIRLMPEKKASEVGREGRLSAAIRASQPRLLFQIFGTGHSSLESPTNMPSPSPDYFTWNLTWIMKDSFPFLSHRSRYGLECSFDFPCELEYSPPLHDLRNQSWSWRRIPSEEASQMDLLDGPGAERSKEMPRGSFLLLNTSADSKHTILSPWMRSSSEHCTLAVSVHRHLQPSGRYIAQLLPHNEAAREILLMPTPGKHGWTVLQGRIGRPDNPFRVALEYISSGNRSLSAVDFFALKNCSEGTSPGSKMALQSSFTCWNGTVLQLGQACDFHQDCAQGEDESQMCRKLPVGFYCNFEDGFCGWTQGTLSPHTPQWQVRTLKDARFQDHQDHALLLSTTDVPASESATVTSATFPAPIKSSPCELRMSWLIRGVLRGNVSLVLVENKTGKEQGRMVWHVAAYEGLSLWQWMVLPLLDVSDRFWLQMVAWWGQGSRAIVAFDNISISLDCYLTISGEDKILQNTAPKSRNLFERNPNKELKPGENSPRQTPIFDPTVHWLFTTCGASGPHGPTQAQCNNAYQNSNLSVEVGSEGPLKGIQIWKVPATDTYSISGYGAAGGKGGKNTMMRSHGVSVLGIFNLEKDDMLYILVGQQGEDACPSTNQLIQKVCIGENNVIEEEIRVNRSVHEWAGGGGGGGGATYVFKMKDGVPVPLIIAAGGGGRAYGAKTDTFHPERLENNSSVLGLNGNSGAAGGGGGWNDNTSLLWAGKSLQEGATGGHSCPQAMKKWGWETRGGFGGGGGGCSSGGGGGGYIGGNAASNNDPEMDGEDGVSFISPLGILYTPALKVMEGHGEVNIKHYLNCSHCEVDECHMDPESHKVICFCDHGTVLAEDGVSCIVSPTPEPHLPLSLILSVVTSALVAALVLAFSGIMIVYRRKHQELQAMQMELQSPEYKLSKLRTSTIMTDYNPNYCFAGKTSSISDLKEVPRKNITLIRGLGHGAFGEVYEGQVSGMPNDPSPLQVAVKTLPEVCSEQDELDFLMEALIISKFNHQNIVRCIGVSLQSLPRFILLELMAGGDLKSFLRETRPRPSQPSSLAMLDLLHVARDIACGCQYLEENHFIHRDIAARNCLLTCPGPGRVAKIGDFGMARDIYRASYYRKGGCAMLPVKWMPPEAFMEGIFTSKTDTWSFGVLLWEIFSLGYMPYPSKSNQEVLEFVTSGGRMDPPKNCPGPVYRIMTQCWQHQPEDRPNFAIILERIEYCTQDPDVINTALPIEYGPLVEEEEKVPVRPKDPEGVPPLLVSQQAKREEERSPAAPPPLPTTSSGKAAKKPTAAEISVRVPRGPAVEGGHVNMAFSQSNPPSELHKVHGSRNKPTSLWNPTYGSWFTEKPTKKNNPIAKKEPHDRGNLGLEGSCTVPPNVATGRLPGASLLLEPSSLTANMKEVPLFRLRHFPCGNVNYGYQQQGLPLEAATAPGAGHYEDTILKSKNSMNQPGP
Chain of Phosphorylase b kinase gamma catalytic chain, skeletal muscle/heart isoform (Homo sapiens) (Q16816 whole entry, looked up, canonical isoform): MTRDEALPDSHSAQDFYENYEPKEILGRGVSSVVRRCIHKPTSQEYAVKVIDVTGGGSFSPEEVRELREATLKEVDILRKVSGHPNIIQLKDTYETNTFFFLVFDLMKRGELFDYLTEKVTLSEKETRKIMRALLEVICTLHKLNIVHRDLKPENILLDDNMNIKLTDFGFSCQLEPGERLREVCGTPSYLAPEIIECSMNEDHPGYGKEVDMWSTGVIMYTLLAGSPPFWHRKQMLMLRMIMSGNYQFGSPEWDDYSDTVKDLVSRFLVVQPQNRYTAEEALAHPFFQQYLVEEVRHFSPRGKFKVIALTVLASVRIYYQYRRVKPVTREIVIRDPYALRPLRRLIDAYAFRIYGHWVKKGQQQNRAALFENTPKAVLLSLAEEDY

N#Cc1ccc(Nc2ccc3[nH]c(=O)[nH]c3c2)c(Cl)c1
inactive: residual activity [1] 89% | residual activity [2] 100% | residual activity [3] 100% | residual activity [4] 97% | residual activity [5] 93% | residual activity [6] 100% | residual activity [7] 100% | residual activity [8] 98% | residual activity [9] 99% | residual activity [10] 83% | residual activity [11] 100% | residual activity [12] 84% | residual activity [13] 83% | residual activity [14] 100% | residual activity [15] 93% | residual activity [16] 100% | residual activity [17] 89% | residual activity [18] 100% | residual activity [19] 100% | residual activity [20] 100% | residual activity [21] 100% | residual activity [22] 100% | residual activity [23] 100% | residual activity [24] 100% | residual activity [25] 100% | residual activity [26] 100% | residual activity [27] 90% | residual activity [28] 100% | residual activity [29] 100% | residual activity [30] 100% | residual activity [31] 100% | residual activity [32] 92% | residual activity [33] 87% | residual activity [34] 68% | residual activity [35] 70% | residual activity [36] 97% | residual activity [37] 100% | residual activity [38] 62% | residual activity [39] 99% | residual activity [40] 100% | residual activity [41] 100% | inhibition [42] 8.12% | inhibition [43] 14% | inhibition [44] 11.6% | inhibition [45] 12.6%

O=C1CCc2cc(Nc3cc(OC4CCOCC4)c([N+](=O)[O-])cc3Cl)ccc2N1
inactive: residual activity [1] 100% | residual activity [2] 82% | residual activity [3] 96% | residual activity [4] 94% | residual activity [5] 88% | residual activity [6] 92% | residual activity [7] 99% | residual activity [8] 88% | residual activity [9] 67% | residual activity [10] 76% | residual activity [11] 90% | residual activity [12] 95% | residual activity [13] 74% | residual activity [14] 93% | residual activity [15] 83% | residual activity [16] 70% | residual activity [17] 64% | residual activity [18] 100% | residual activity [19] 87% | residual activity [20] 100% | residual activity [21] 100% | residual activity [22] 95% | residual activity [23] 94% | residual activity [24] 100% | residual activity [25] 94% | residual activity [26] 100% | residual activity [27] 99% | residual activity [28] 96% | residual activity [29] 87% | residual activity [30] 100% | residual activity [31] 100% | residual activity [32] 75% | residual activity [33] 85% | residual activity [34] 98% | residual activity [35] 53% | residual activity [36] 81% | residual activity [37] 92% | residual activity [38] 100% | residual activity [39] 100% | residual activity [40] 100% | residual activity [41] 96% | inhibition [42] 12.3% | inhibition [43] 13.6% | inhibition [44] 48.7% | inhibition [45] 12.6%
